In experiment [1] the target is T1, human TPST1 (Homo sapiens, UniProt O60507).
T1 construct: human TPST1 (residues Lys43–Leu360) and TPST2 (residues Gly43–Leu359) enzymes lacking the transmembrane domains; made in house; host or cells: E. coli BL21 (DE3) pLysS
T1 sequence (O60507 43-360): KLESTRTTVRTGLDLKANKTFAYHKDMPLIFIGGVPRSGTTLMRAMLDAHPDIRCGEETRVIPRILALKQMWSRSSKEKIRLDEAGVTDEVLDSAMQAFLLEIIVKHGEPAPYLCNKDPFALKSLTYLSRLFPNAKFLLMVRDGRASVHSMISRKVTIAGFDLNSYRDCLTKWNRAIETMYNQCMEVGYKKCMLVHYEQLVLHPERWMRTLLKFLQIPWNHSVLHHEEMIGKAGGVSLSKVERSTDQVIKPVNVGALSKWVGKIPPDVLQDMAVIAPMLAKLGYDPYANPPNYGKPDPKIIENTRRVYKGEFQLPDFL
The experiment can be described thus: Differential scanning fluorimetry (thermal shift) assay with TPST1. In kind it is binding. Particulars: DSF, TPST1 5 µM. (Differential scanning fluorimetry follows unfolding on heating by fluorescence.)

In experiment [2] the target is T2, human TPST2 (Homo sapiens, UniProt O60704).
T2 construct: TPST2 (residues Gly43–Leu359) enzymes lacking the transmembrane domains; made in house; host or cells: E. coli BL21 (DE3) pLysS
T2 sequence (O60704 43-359): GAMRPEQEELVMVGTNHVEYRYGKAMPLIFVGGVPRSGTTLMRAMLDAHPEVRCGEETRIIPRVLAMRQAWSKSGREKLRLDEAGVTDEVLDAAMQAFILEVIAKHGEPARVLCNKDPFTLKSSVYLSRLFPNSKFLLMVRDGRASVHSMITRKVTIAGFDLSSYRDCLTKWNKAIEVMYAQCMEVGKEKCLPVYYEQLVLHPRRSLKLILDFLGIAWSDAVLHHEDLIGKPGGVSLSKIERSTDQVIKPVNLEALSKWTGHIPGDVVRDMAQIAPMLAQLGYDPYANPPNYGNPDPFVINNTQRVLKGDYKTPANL
The experiment can be described thus: Differential scanning fluorimetry (thermal shift) assay with TPST2. Particulars: DSF, TPST2 5 µM. The experiment is classed as binding.

Experiment [3] addresses T1, human TPST1. The experiment can be described thus: EZ Reader II microfluidic mobility-shift CC4-tide sulfation assay, TPST1. The note with it: 10 µM PAPS. The experiment is classed as biochemical.
Experiment [4] concerns the target T2, human TPST2. The experiment can be described thus: EZ Reader II microfluidic mobility-shift CC4-tide sulfation assay, TPST2. In kind it is biochemical.
In experiment [5] the target is T1, human TPST1. The experiment can be described thus: GST-CC4-tide tyrosine sulfation by TPST1, immunoblotting with monoclonal sulfotyrosine antibody. The experiment is classed as biochemical. The note with it: GST-CC4-tide 1 µg, 10 µM PAPS, increasing concentrations of inhibitor. How it is done: After the assay, proteins were denatured in Laemmli sample buffer, heated at 95°C for 5 min and then analysed by SDS–PAGE with 10% (v/v) polyacrylamide gels. Gels were stained and destained using a standard Coomassie Brilliant Blue protocol. To evaluate protein sulfation and phosphorylation by immunoblotting, standard western blotting procedures were followed using monoclonal anti-sulfotyrosine antibody clone Sulfo-1C-A2 (Millipore) generated using a phage display procedure and sulfotyrosine selection peptide antigens in the presence of appropriate positive and negative controls, and modifications visualised using the ECL reagent.

In experiment [6] the test system is heparin sulfate 2-O sulfotransferase HS2ST. On the set-up: method as in PMID 29934491. Particulars: cited from earlier work.
The test system of another experiment is TPST2. The note with it: cited from earlier work.
Another experiment relates to TPST1. Particulars: read-out: Km for PAPS, TPST1, literature reports; cited from earlier work.
[7] abbreviates: 0.5 mM nucleotide, relative to buffer control.

Like-named read-outs stand apart in the source and are kept apart here.

As a reminder, the IC50 is the point on the concentration scale where inhibition reaches its midpoint. `CC(=O)c1c(O)c(C)c(O)c(Cc2c(O)c3c(c(C(=O)/C=C/c4ccccc4)c2O)OC(C)(C)C=C3)c1O` [Rottlerin]: the “Thermal shift of TPST1 (in words)” value on human TPST1 [1] (10 µM rottlerin) is “positive”. Besides, the “Thermal shift of TPST2 (in words)” value at human TPST2 [2] (10 µM rottlerin) is listed as “positive”. In addition, the IC50 at human TPST1 [3] (TPST1 IC50 (rottlerin dose-response), Fig 6A, CC4-tide, normalised to 1% DMSO) was 500 nM; at human TPST1 [3] (TPST1 IC50, previously described compounds, Fig 6C, CC4-tide, normalised to 1% DMSO), around 1000 nM; on human TPST1 [3] (TPST1 estimated IC50, RAF kinase inhibitors, Fig 8B, TPST1 0.1 µM pre-incubated with compound), 600 nM; at human TPST2 [4], 1140 nM. At human TPST1 [5], the “Inhibition of GST-CC4-tide tyrosine sulfation by TPST1 (immunoblot, in words)” value is reported as “dose-dependent inhibition”. The “HS2ST inhibition in vitro (in words)” value in experiment [6] is “inhibitory activity”.
Broadly, the Km is the concentration of substrate that gives half-maximal velocity. For the molecule `Nc1ncnc2c1ncn2C1OC(COP(=O)(O)OS(=O)(=O)O)C(OP(=O)(O)O)C1O` (stereo not shown) [PAPS, adenosine 3′-phosphate 5′-phosphosulfate], the “ΔTm TPST1” value on human TPST1 [1] (setting [7]) was around 3 °C. Moreover, the “ΔTm TPST2” value on human TPST2 [2] (setting [7]) is around 9 °C. The Km is 12 µM in the experiment on TPST2 (read-out: Km for PAPS, TPST2 obtained from transfected CHO cell medium); around 5 µM with TPST2 (read-out: Km for PAPS, recombinant TPST2 isolated from baculovirus-infected insect cells); 2 to 5 µM in the experiment on TPST1.

Values taken from paper PMC6094398, “New tools for evaluating protein tyrosine sulfation: tyrosylprotein sulfotransferases (TPSTs) are novel targets for RAF protein kinase inhibitors” (Biochemical Journal, 2018).
